Results from patent US20200323991A1, “PBD CONJUGATES FOR TREATING DISEASES” (ENDOCYTE, INC., priority 2016, published 2020).
Where two headings read alike, the source gives them in different places.

Tested on: KB cells
Assay type: cell-based, human
Settings: read-out: IC50 value, 3H-thymidine incorporation
Method: The conjugates described herein were evaluated using an in vitro cytotoxicity assay that predicted the ability of the drug to inhibit the growth of the corresponding targeted cells, such as, but not limited to the following
It is to be understood that the choice of cell type can be made on the basis of the susceptibility of those selected cells to the drug that forms the conjugate, and the relative expression of the cell surface receptor or target antigen. The test conjugates were conjugates of a cell surface receptor or target antigen binding compound and PBD prodrugs, poly-PBD prodrugs, and mixed PBDs, as described herein. The test cells were exposed to varying concentrations of the conjugates, and optionally also in the absence or presence of at least a 100-fold excess of the unconjugated cell surface receptor or target antigen binding compound for competition studies to assess activity as being specific to the cell surface receptor or target antigen.
KB cells were seeded in individual 24-well Falcon plates and allowed to form nearly confluent monolayers overnight in folate free Roswell Park Memorial Institute (FFRPMI)/Heat-Inactivated Fetal Calf Serum (HIFCS). Thirty minutes prior to the addition of folate-conjugate, spent medium was aspirated from all wells and replaced with either fresh FFRPMI or FFRPMI supplemented with 100 μM folic acid. […] Cells were pulsed for 2 h at 37° C., rinsed 4 times with 0.5 mL of medium and then chased in 1 mL of fresh medium up to 72 h. Spent medium was aspirated from all wells and replaced with fresh medium containing 5 μCi/mL of ^3H-thymidine. Following a 2 h incubation at 37° C., cells were washed 3 times with 0.5 mL of PBS and then treated with 0.5 mL of ice-cold 5% trichloroacetic acid per well. After 15 min, the trichloroacetic acid was aspirated and the cells solubilized by the addition of 0.5 mL of 0.25 N sodium hydroxide for 15 min at room temperature. Four hundred and fifty […] of each solubilized sample were transferred to scintillation vials containing 3 mL of Ecolume scintillation cocktail and counted in a liquid scintillation counter. Final results were expressed as the percentage of ^3H-thymidine incorporation relative to untreated controls.

[1] = with excess folate (100 μM folic acid)
[2] = without excess folate, 2 h pulse, chase up to 72 h

SMILES | IC50 [1] [nM] | IC50 [2] [nM]
C=C1C[C@H]2C=Nc3cc(OCCCCCOc4cc(N)c(C(=O)N5CC(=C)C[C@H]5C5OCCN5C(=O)OCC(C)(C)SSCCC(=O)NCCNC(=O)CCCCCN5C(=O)CC(SC[C@H](NC(=O)[C@H](CC(=O)O)NC(=O)[C@H](CC(=O)O)NC(=O)[C@H](CCCNC(=N)N)NC(=O)[C@H](CC(=O)O)NC(=O)CC[C@H](NC(=O)c6ccc(NCc7cnc8nc(N)[nH]c(=O)c8n7)cc6)C(=O)O)C(=O)O)C5=O)cc4OC)c(OC)cc3C(=O)N2C1 (some centres unmarked) [Conjugate 22] | 1.4 | 0.14
C=C1C[C@H]2C=Nc3cc(OCCCCCOc4cc5c(cc4OC)C(=O)N4CC(=C)C[C@H]4C(O)N5C(=O)OCC(C)(C)SSCCC(=O)NCCNC(=O)CCOCCOCCOCCOCCNC(=O)CCN4C(=O)CC(SC[C@H](NC(=O)[C@H](CC(=O)O)NC(=O)[C@H](CC(=O)O)NC(=O)[C@H](CCCNC(=N)N)NC(=O)[C@H](CC(=O)O)NC(=O)CC[C@H](NC(=O)c5ccc(NCc6cnc7nc(N)[nH]c(=O)c7n6)cc5)C(=O)O)C(=O)O)C4=O)c(OC)cc3C(=O)N2C1 (some centres unmarked) [Conjugate 24] | 1.8 | 0.079
C=C1C[C@H]2C=Nc3cc(OCCCCCOc4cc(NC(=O)OCCSSC[C@@H](C)NC(=O)CCOCCOCCOCCOCCNC(=O)[C@H](CC(=O)O)NC(=O)[C@H](CC(=O)O)NC(=O)[C@H](CCCNC(=N)N)NC(=O)[C@H](CC(=O)O)NC(=O)CC[C@H](NC(=O)c5ccc(NCc6cnc7nc(N)[nH]c(=O)c7n6)cc5)C(=O)O)c(C(=O)N5CC(=C)C[C@H]5/C=N/OC)cc4OC)c(OC)cc3C(=O)N2C1 [Conjugate 26] | 1.6 | 0.028
C=C1C[C@H]2C=Nc3cc(OCCCCCOc4cc(NC(=O)OCC(C)SSC[C@H](NC(=O)CCOCCOCCOCCOCCNC(=O)[C@H](CC(=O)O)NC(=O)[C@H](CC(=O)O)NC(=O)[C@H](CCCNC(=N)N)NC(=O)[C@H](CC(=O)O)NC(=O)CC[C@H](NC(=O)c5ccc(NCc6cnc7nc(N)[nH]c(=O)c7n6)cc5)C(=O)O)C(=O)O)c(C(=O)N5CC(=C)C[C@H]5/C=N/OC)cc4OC)c(OC)cc3C(=O)N2C1 (some centres unmarked) [Conjugate 27] | 6.1 | 0.091
C=C1C[C@H]2C=Nc3cc(OCCCCCOc4cc(NC(=O)OCCCSSC[C@H](NC(=O)[C@H](CC(=O)O)NC(=O)[C@H](CC(=O)O)NC(=O)[C@H](CCCNC(=N)N)NC(=O)[C@H](CC(=O)O)NC(=O)CC[C@H](NC(=O)c5ccc(NCc6cnc7nc(N)[nH]c(=O)c7n6)cc5)C(=O)O)C(=O)O)c(C(=O)N5CC(=C)C[C@H]5/C=N/OC)cc4OC)c(OC)cc3C(=O)N2C1 [Conjugate 31] |  | 0.647
C=C1C[C@H]2C=Nc3cc(OCCCCCOc4cc(NC(=O)OCCSSC(C)(C)[C@H](NC(=O)[C@H](CC(=O)O)NC(=O)[C@H](CC(=O)O)NC(=O)[C@H](CCCNC(=N)N)NC(=O)[C@H](CC(=O)O)NC(=O)CC[C@H](NC(=O)c5ccc(NCc6cnc7nc(N)[nH]c(=O)c7n6)cc5)C(=O)O)C(=O)O)c(C(=O)N5CC(=C)C[C@H]5/C=N/OC)cc4OC)c(OC)cc3C(=O)N2C1 [Conjugate 32] | 57 | 2
